In PubChem BioAssay AID1963868 (Molecular Pharmacology Branch, DTP, NCI, 2024):

Tested on: KRAS PDC tumor spheroids (HUVEC+MSC), viability
Test: Anticancer human tumor 254851-301-R-J1-PDC patient-derived colon carcinoma cell line growth inhibition [KRAS2]
Settings: for IC50: curve of first compound; for viability, T/C: stronger effect = lower value
Method in brief: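 KRAS-mutant tumor cells were grown as spheroids with HUVEC endothelial cells and human MSCs as stroma. Targeted agents were tested alone and with KRAS pathway inhibitors. Doses started at or near clinical Cmax, or 10 microM, descending half-log.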

[1] = second compound 0.1 µM, first compound 0.0316 µM
[2] = second compound 0.1 µM, first compound 0.1 µM
[3] = second compound 0.1 µM, first compound 0.316 µM
[4] = second compound 0.1 µM, first compound 1 µM
[5] = second compound 0.1 µM, first compound 3.16 µM
[6] = second compound 0.1 µM, first compound 10 µM
[7] = second compound 0.316 µM, first compound 0.0316 µM
[8] = second compound 0.316 µM, first compound 0.1 µM
[9] = second compound 0.316 µM, first compound 0.316 µM
[10] = second compound 0.316 µM, first compound 1 µM
[11] = second compound 0.316 µM, first compound 3.16 µM
[12] = second compound 0.316 µM, first compound 10 µM
[13] = second compound 1 µM, first compound 0.0316 µM
[14] = second compound 1 µM, first compound 0.1 µM
[15] = second compound 1 µM, first compound 0.316 µM
[16] = second compound 1 µM, first compound 1 µM
[17] = second compound 1 µM, first compound 3.16 µM
[18] = second compound 1 µM, first compound 10 µM
[19] = second compound 3.16 µM, first compound 0.0316 µM
[20] = second compound 3.16 µM, first compound 0.1 µM
[21] = second compound 3.16 µM, first compound 0.316 µM
[22] = second compound 3.16 µM, first compound 1 µM
[23] = second compound 3.16 µM, first compound 3.16 µM
[24] = second compound 3.16 µM, first compound 10 µM
[25] = second compound 10 µM, first compound 0.0316 µM
[26] = second compound 10 µM, first compound 0.1 µM
[27] = second compound 10 µM, first compound 0.316 µM
[28] = second compound 10 µM, first compound 1 µM
[29] = second compound 10 µM, first compound 3.16 µM
[30] = second compound 10 µM, first compound 10 µM
[31] = second compound 0.1 µM, first compound 0.000316 µM
[32] = second compound 0.1 µM, first compound 0.001 µM
[33] = second compound 0.1 µM, first compound 0.00316 µM
[34] = second compound 0.1 µM, first compound 0.01 µM
[35] = second compound 0.316 µM, first compound 0.000316 µM
[36] = second compound 0.316 µM, first compound 0.001 µM
[37] = second compound 0.316 µM, first compound 0.00316 µM
[38] = second compound 0.316 µM, first compound 0.01 µM
[39] = second compound 1 µM, first compound 0.000316 µM
[40] = second compound 1 µM, first compound 0.001 µM
[41] = second compound 1 µM, first compound 0.00316 µM
[42] = second compound 1 µM, first compound 0.01 µM
[43] = second compound 3.16 µM, first compound 0.000316 µM
[44] = second compound 3.16 µM, first compound 0.001 µM
[45] = second compound 3.16 µM, first compound 0.00316 µM
[46] = second compound 3.16 µM, first compound 0.01 µM
[47] = second compound 10 µM, first compound 0.000316 µM
[48] = second compound 10 µM, first compound 0.001 µM
[49] = second compound 10 µM, first compound 0.00316 µM
[50] = second compound 10 µM, first compound 0.01 µM
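Further: spheroids exposed to compounds for seven days before readout.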
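Wherever viability, T/C is given: 100% = DMSO vehicle control luminescence of the spheroids.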

O=C(c1cc(Cc2n[nH]c(=O)c3ccccc23)ccc1F)N1CCN(C(=O)C2CC2)CC1 + C=CC(=O)N1CCN(c2nc(=O)n(-c3c(C)ccnc3C(C)C)c3nc(-c4c(O)cccc4F)c(F)cc23)C(C)C1
IC50 (second compound 0.1 µM): > 10000 nM | IC50 (second compound 0.316 µM): > 10000 nM | IC50 (second compound 1 µM): > 10000 nM | IC50 (second compound 3.16 µM): > 10000 nM | IC50 (second compound 10 µM): > 10000 nM | viability, T/C [1]: 104% | viability, T/C [2]: 100% | viability, T/C [3]: 101% | viability, T/C [4]: 103% | viability, T/C [5]: 95.6% | viability, T/C [6]: 89.5% | viability, T/C [7]: 116% | viability, T/C [8]: 104% | viability, T/C [9]: 96% | viability, T/C [10]: 97% | viability, T/C [11]: 101% | viability, T/C [12]: 97.2% | viability, T/C [13]: 111% | viability, T/C [14]: 101% | viability, T/C [15]: 111% | viability, T/C [16]: 104% | viability, T/C [17]: 106% | viability, T/C [18]: 92% | viability, T/C [19]: 106% | viability, T/C [20]: 102% | viability, T/C [21]: 105% | viability, T/C [22]: 100% | viability, T/C [23]: 102% | viability, T/C [24]: 95.7% | viability, T/C [25]: 107% | viability, T/C [26]: 114% | viability, T/C [27]: 105% | viability, T/C [28]: 110% | viability, T/C [29]: 101% | viability, T/C [30]: 107%

CC(=O)Nc1cccc(-n2c(=O)n(C3CC3)c(=O)c3c(Nc4ccc(I)cc4F)n(C)c(=O)c(C)c32)c1 + C=CC(=O)N1CCN(c2nc(=O)n(-c3c(C)ccnc3C(C)C)c3nc(-c4c(O)cccc4F)c(F)cc23)C(C)C1
IC50 (second compound 0.1 µM): 6.27 nM | IC50 (second compound 0.316 µM): 5.14 nM | IC50 (second compound 1 µM): 6.52 nM | IC50 (second compound 3.16 µM): 6.44 nM | IC50 (second compound 10 µM): 5.08 nM | viability, T/C (second compound 0.1 µM, first compound 0.0001 µM): 104% | viability, T/C [31]: 105% | viability, T/C [32]: 89.5% | viability, T/C [33]: 84.4% | viability, T/C [34]: 27.2% | viability, T/C [1]: 3.31% | viability, T/C (second compound 0.316 µM, first compound 0.0001 µM): 102% | viability, T/C [35]: 103% | viability, T/C [36]: 87.9% | viability, T/C [37]: 77.4% | viability, T/C [38]: 13% | viability, T/C [7]: 3.29% | viability, T/C (second compound 1 µM, first compound 0.0001 µM): 102% | viability, T/C [39]: 96.6% | viability, T/C [40]: 93.9% | viability, T/C [41]: 74.3% | viability, T/C [42]: 35.5% | viability, T/C [13]: 3.32% | viability, T/C (second compound 3.16 µM, first compound 0.0001 µM): 98.5% | viability, T/C [43]: 99.4% | viability, T/C [44]: 85.1% | viability, T/C [45]: 77% | viability, T/C [46]: 34% | viability, T/C [19]: 3.35% | viability, T/C (second compound 10 µM, first compound 0.0001 µM): 105% | viability, T/C [47]: 105% | viability, T/C [48]: 96.9% | viability, T/C [49]: 75% | viability, T/C [50]: 14.6% | viability, T/C [25]: 3.11%

CCNC(=O)CC1N=C(c2ccc(Cl)cc2)c2cc(OC)ccc2-n2c(C)nnc21 (stereo not given) + CNCc1ccccc1-c1csc(C(C)Nc2nc(C)nc3cc(OC)c(OC)cc23)c1
IC50 (second compound 0.1 µM): > 10000 nM | IC50 (second compound 0.316 µM): > 10000 nM | IC50 (second compound 1 µM): > 10000 nM | IC50 (second compound 3.16 µM): < 31.6 nM | IC50 (second compound 10 µM): < 31.6 nM | viability, T/C [1]: 106% | viability, T/C [2]: 91.1% | viability, T/C [3]: 90.4% | viability, T/C [4]: 99.1% | viability, T/C [5]: 96% | viability, T/C [6]: 78.6% | viability, T/C [7]: 103% | viability, T/C [8]: 111% | viability, T/C [9]: 98.3% | viability, T/C [10]: 92.9% | viability, T/C [11]: 92.4% | viability, T/C [12]: 81.9% | viability, T/C [13]: 90.4% | viability, T/C [14]: 101% | viability, T/C [15]: 92.2% | viability, T/C [16]: 100% | viability, T/C [17]: 92.1% | viability, T/C [18]: 73.8% | viability, T/C [19]: 44.8% | viability, T/C [20]: 43.3% | viability, T/C [21]: 38% | viability, T/C [22]: 31.3% | viability, T/C [23]: 34.4% | viability, T/C [24]: 31% | viability, T/C [25]: 0.08% | viability, T/C [26]: 0.08% | viability, T/C [27]: 0.08% | viability, T/C [28]: 0.08% | viability, T/C [29]: 0.07% | viability, T/C [30]: 0.45%

CN(C)C/C=C/C(=O)Nc1cc2c(Nc3ccc(F)c(Cl)c3)ncnc2cc1O[C@H]1CCOC1 + CNCc1ccccc1-c1csc(C(C)Nc2nc(C)nc3cc(OC)c(OC)cc23)c1
IC50 (second compound 0.1 µM): > 100 nM | IC50 (second compound 0.316 µM): > 100 nM | IC50 (second compound 1 µM): > 100 nM | IC50 (second compound 3.16 µM): > 100 nM | IC50 (second compound 10 µM): < 0.316 nM | viability, T/C [31]: 99.9% | viability, T/C [32]: 105% | viability, T/C [33]: 96.4% | viability, T/C [34]: 94.7% | viability, T/C [1]: 93.1% | viability, T/C [2]: 72.8% | viability, T/C [35]: 104% | viability, T/C [36]: 98.3% | viability, T/C [37]: 90.4% | viability, T/C [38]: 87.9% | viability, T/C [7]: 82.8% | viability, T/C [8]: 72.3% | viability, T/C [39]: 97.1% | viability, T/C [40]: 89.2% | viability, T/C [41]: 84.6% | viability, T/C [42]: 82% | viability, T/C [13]: 75.5% | viability, T/C [14]: 79.9% | viability, T/C [43]: 84% | viability, T/C [44]: 82.1% | viability, T/C [45]: 81.8% | viability, T/C [46]: 75.1% | viability, T/C [19]: 73.8% | viability, T/C [20]: 62.2% | viability, T/C [47]: 0.17% | viability, T/C [48]: 0.18% | viability, T/C [49]: 0.18% | viability, T/C [50]: 0.16% | viability, T/C [25]: 0.17% | viability, T/C [26]: 0.21%
